Assays:
[1] = Drug uptake in human MCF7 cells at 10 uM incubated for 24 hrs by fluorescence based assay; type: ADME, cell-based; settings: mcf7, 24 h
Albumin [2] = target: T1, Albumin (Bos taurus, UniProt P02769); assay: Binding affinity to bovine serum albumin assessed as binding constant by fluorescence based Stern-Volmer plot analysis; settings: cattle
Albumin [3] = target: T1, Albumin; assay: Binding affinity to bovine serum albumin assessed as Stem-Volmer quenching constant by fluorescence based Stern-Volmer plot analysis; settings: cattle
[4] = Drug uptake in human MCF7 cells at 10 uM incubated for 2 hrs by fluorescence based assay; type: ADME, cell-based; settings: mcf7, 2 h

T1 sequence (P02769 whole entry): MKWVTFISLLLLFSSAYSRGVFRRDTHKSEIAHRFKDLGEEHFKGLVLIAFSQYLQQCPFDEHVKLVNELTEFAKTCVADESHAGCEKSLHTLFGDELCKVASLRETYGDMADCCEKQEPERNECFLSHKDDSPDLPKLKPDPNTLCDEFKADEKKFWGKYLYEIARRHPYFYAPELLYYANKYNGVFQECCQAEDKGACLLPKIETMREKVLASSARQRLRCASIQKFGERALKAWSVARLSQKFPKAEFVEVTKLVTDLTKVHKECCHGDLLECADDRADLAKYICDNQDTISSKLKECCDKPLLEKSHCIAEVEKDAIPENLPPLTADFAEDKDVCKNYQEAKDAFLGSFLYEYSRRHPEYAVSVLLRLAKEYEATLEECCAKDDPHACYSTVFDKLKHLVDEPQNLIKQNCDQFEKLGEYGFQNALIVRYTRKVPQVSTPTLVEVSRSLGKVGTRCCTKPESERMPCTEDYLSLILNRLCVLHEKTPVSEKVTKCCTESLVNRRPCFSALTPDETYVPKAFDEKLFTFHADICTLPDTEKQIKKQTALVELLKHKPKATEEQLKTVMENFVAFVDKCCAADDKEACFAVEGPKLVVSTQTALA

Row | Drug uptake [1] | Ka (Albumin [2]) | KSV (Albumin [3]) | Drug uptake [4] | SMILES
1 | 5.8 10^-2microM | 3.84 10^4L/mol | 4.96 10^4L/mol | 5.8 10^-2microM | CC(=O)Nc1ccc(-c2c3nc(c(-c4ccccc4)c4ccc([nH]4)c(-c4ccccc4)c4nc(c(-c5ccccc5)c5ccc2[nH]5)C=C4)C=C3)cc1
2 | 4.4 10^-2microM | 3.12 10^4L/mol | 4.09 10^4L/mol | 3 10^-2microM | CCCCCCCCCCCCCCCC(=O)Nc1ccc(-c2c3nc(c(-c4ccccc4)c4ccc([nH]4)c(-c4ccccc4)c4nc(c(-c5ccccc5)c5ccc2[nH]5)C=C4)C=C3)cc1
3 | 1.7 10^-2microM | 1.98 10^4L/mol | 3.03 10^4L/mol | 1.7 10^-2microM | CCCCCCCCCCCCCCCC(=O)NC1=Cc2nc1c(-c1ccccc1)c1ccc([nH]1)c(-c1ccccc1)c1nc(c(-c3ccccc3)c3ccc([nH]3)c2-c2ccccc2)C=C1
4 | 4.3 10^-2microM | 2.86 10^4L/mol | 4.33 10^4L/mol | 3.3 10^-2microM | CC(=O)NC1=Cc2nc1c(-c1ccccc1)c1ccc([nH]1)c(-c1ccccc1)c1nc(c(-c3ccccc3)c3ccc([nH]3)c2-c2ccccc2)C=C1

Reference: ChEMBL document CHEMBL4699453, “Correlations between functional porphyrin positions and accumulation in cancer cells” (Bioorg Med Chem Lett, 2020)
